This passage reports TGI and GI50 results from PubChem BioAssay (NCI).

“And” between values parts separate entries of the source, which are not always exact repeats. Equal values may be shown once.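 Five compound concentrations were applied to cells in 96-well plates for 48 hours; endpoints were derived by simple linear interpolation of the resulting dose-response curve. Here, GI50 denotes the concentration required for 50% inhibition of growth. TGI denotes the concentration required for complete inhibition of growth.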

Holding throughout (test): NCI-60 cell line screen, 48 h
Test [1] has as its system UACC-62 melanoma.
The subject of test [2] is HL-60(TB) leukemia.
For test [3], the system named is NCI-H226 lung.
Test [4] deals with SNB-75 CNS.
The test system of test [5] is MOLT-4 leukemia.
Test [6] deals with UACC-257 melanoma.
In test [7] the test system is BT-549 breast.
For test [8], the system named is EKVX NSCLC.
Test [9] has as its system DU-145 prostate.
Test [10] deals with NCI-H522 lung.

Turning to `Cn1cc(NC(=O)Nc2cc(C(=O)Nc3cc(C(=O)Nc4cc(S(=O)(=O)O)c5cc(S(=O)(=O)O)cc(S(=O)(=O)O)c5c4)n(C)c3)n(C)c2)cc1C(=O)Nc1cc(C(=O)Nc2cc(S(=O)(=O)O)c3cc(S(=O)(=O)O)cc(S(=O)(=O)O)c3c2)n(C)c1`, the TGI in test [1], in [2], in [3], in [4], in [5] and in [6] was over 100 µM throughout. For the same compound, the TGI in test [7], in [8], in [9] and in test [10] was over 100 µM in each case.
On to `Cn1cc(-c2nc(N[C@@H]3CCCC[C@@H]3N)c(F)c3c2C(=O)NC3)cn1`, for which the GI50 was 10.4 µM and 13.1 µM in [1]; 9.21 µM and 11.2 µM in test [2]; 2.93 µM and 3.83 µM in test [3]; 2.14 µM and 2.87 µM in [4]; 4.74 µM and 6.87 µM in [5]; 19.4 µM and 23.9 µM in test [6]. For the same compound, the GI50 in test [7] was 6.47 µM and 10 µM; in test [8], 14.3 µM and 20.1 µM; in test [9], 11.5 µM and 14.4 µM; in test [10], 12.8 µM and 13.1 µM. Also, the TGI was over 100 µM in test [1]; 37 µM and 40.9 µM in test [2]; 23.9 µM and 49.7 µM in [3]; 11.7 µM and 16.5 µM in [4]; > 80.2 µM and 98.9 µM in [5]; 98.6 µM and > 88.5 µM in test [6]. For the same compound, the TGI was 21.3 µM and 29.7 µM in [7]; over 100 µM in test [8]; over 100 µM in test [9]; 66.5 µM and > 91.1 µM in test [10].
Turning to `COc1cc(Cn2c(-c3ccccc3)cc3c2-c2oncc2CC3)cc(OC)c1`, the GI50 in test [1] was 0.314 µM; in [2] it was 0.264 µM; in [3], 0.93 µM; in test [4] it was 0.201 µM; in [5] it was 0.427 µM; in test [7], 0.9 µM. The figures for the GI50 in test [8], in test [9] and in [10] were 0.449 µM, 0.309 µM and 0.0891 µM, respectively. For the same compound, the TGI in [1] was over 100 µM; in [2], 2.73 µM; in test [3] it was over 100 µM; in test [4], 20.1 µM; in test [5] it was over 100 µM; in test [6], over 100 µM. For the same compound, the TGI is over 100 µM in test [7], over 100 µM in test [8], 1.25 µM in test [9] and 1.98 µM in test [10].
As for `COc1ccc(C(=O)c2cc3c(N)c(C(=O)Nc4cccc(OC)c4)sc3nc2C)cc1`, the GI50 was 0.594 µM in test [1]; 0.311 µM in test [2]; 2.99 µM in test [3]; 0.541 µM in test [4]; 0.745 µM in test [5]; over 100 µM in test [6]. Besides, the GI50 in test [7] is 1.67 µM; in test [8] it was 0.997 µM; in test [9] it was 0.523 µM; in [10], 1.19 µM. Besides, the TGI is over 100 µM in [1]; 1.52 µM in test [2]; over 100 µM in test [3]; over 100 µM in test [4]; over 100 µM in test [5]; over 100 µM in [6]. For the same compound, the TGI in test [7], in [8], in [9] and in test [10] was over 100 µM throughout.
As to `O=S(=O)(O)SCCNCCCCCC1CCCCC1`, the TGI in test [1] is 4.22 µM; in [2] it was over 100 µM; in [3], 30.6 µM; in [4], 16.3 µM; in test [5] it was over 31 µM; in [6], 19.5 µM. Further, the TGI is 31.4 µM in test [7], 22.9 µM in test [8], 12.1 µM in test [9] and 37.3 µM in [10].
With `Cc1cc2nc3c4ccc(Br)cc4n(CCN(C)C)c3nc2cc1C`, the GI50 is 1.82 µM in test [1]; 1.45 µM in test [2]; 2.46 µM in test [3]; 1.82 µM in test [4]; 0.412 µM in test [5]; 1.88 µM in test [6]. In addition, the GI50 is 1.71 µM in test [7], 2.02 µM in test [8], 2.96 µM in [9] and 1.99 µM in test [10]. Also, the TGI turned out to be 3.68 µM in test [1]; 5.68 µM in [2]; 11.1 µM in test [3]; 5.19 µM in test [4]; 5.62 µM in [5]; 3.91 µM in test [6]. The TGI in [7] is 3.75 µM; in test [8], 6.58 µM; in test [9] it was 9.96 µM; in test [10], 4.66 µM.
Regarding `CC(/C=N/N=C(N)N)=N\N=C(N)N`, the GI50 was over 55.3 µM in test [1]; 69.1 µM in [2]; 28.3 µM in test [4]; 28.2 µM in test [5]; over 73.7 µM in test [6]; 40.9 µM in test [7]. The GI50 in [8] was 61.5 µM; in test [9], 31 µM; in [10], 25.1 µM. The TGI was 236 µM in test [1]; 578 µM in [2]; 459 µM in [3]; 187 µM in test [4]; 463 µM in [5]; 521 µM in [6]. Also, the TGI in test [7] is 928 µM; in [8], 499 µM; in test [9] it was 2240 µM; in test [10], 248 µM.
Take `O=C(CCCCCCCCC(=O)N/N=C\c1cc(Cl)ccc1O)N/N=C\c1cc(Cl)ccc1O`: the GI50 in test [1] is 0.235 µM; in test [2], 0.164 µM; in test [3] it was 0.5 µM; in [4], 15.6 µM; in test [5], 0.222 µM; in test [6] it was 0.306 µM. Moreover, the GI50 in test [7] is 0.526 µM; in test [8], 3.49 µM; in test [9], 0.495 µM; in [10], 0.31 µM. In addition, the TGI is 0.571 µM in test [2]; over 36.2 µM in test [3]; over 65.9 µM in test [4]; 17.6 µM in [5]; 96.8 µM in test [7]; over 100 µM in [8]. The TGI in test [9] and in test [10] was over 100 µM throughout.
